Data reported in ChEMBL document CHEMBL1201862, “PubChem BioAssay data set” (2004).
The source made the active and inactive calls. No stated cut-off is given here; in the data, actives have a measured IC50 and inactives only a lower limit.

Target: Envelope glycoprotein gp160 (Human immunodeficiency virus 1, UniProt Q6QLK5)
Assay: inhibitors of HIV fusion peptide binding, primary screen, biochemical, uHTS, fluorescence dequenching (AID 1986)

Chain of Envelope glycoprotein gp160 (Q6QLK5 whole entry, the tested form may be a part): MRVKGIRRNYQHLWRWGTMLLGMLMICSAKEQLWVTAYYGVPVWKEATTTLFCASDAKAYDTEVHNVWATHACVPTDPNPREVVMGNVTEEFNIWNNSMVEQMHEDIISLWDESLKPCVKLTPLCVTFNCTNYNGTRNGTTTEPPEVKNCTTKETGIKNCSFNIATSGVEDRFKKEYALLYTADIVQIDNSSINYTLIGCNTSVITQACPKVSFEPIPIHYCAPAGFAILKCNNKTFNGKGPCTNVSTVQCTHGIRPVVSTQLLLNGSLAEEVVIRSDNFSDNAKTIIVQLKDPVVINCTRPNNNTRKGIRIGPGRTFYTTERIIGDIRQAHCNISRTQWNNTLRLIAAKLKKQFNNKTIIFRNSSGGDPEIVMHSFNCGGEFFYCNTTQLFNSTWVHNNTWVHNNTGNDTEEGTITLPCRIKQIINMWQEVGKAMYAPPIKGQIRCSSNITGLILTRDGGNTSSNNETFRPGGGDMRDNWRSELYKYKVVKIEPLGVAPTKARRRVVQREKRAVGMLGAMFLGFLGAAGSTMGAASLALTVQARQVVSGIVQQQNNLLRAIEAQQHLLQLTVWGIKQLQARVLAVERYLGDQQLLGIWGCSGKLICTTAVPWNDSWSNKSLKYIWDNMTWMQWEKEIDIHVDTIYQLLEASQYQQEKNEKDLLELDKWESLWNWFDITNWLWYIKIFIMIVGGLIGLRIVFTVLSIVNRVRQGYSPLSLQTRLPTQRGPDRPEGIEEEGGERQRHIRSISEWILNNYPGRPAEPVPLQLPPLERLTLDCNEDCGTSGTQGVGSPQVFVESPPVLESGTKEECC

**Q.** For O=c1[nH]c(=S)[nH]c2c1C(c1ccc(Br)cc1)c1c([nH]c(=S)[nH]c1=O)O2, which IC50 is on record?
**A.** 11.3 µM (active)
